In patent US6844443B2, “Benzimidazole derivatives, their production and use” (Takeda Pharmaceutical Company, Ltd., priority 1990, dated 2005):

Assay: Heat stability of solid forms (Experimental Example 1)
Format: physicochemical
Conditions: solid form of 1-(cyclohexyloxycarbonyloxy)ethyl ester
Description: 1-(Cyclohexyloxycarbonyloxy)ethyl 2-ethoxy-1-[[2′-(1 H-tetrazol-5-yl)biphenyl-4-yl]methyl]benzimidazole-7-carboxylate is usually purified by column chromatography on silica gel and the eluted fraction is concentrated to dryness to give amorphous powders. […] For solving this problem, the present inventors made extensive experiments on crystallization of the subject compound and discovered C-type crystalline form. […] The C-type crystal of the title compound has approximately the following lattice spacings: […]

SMILES | heat stability of solid form
CCOc1nc2cccc(C(=O)OC(C)OC(=O)OC3CCCCC3)c2n1Cc1ccc(-c2ccccc2-c2nnn[nH]2)cc1 (stereo not shown) [amorphous powders, 1-(Cyclohexyloxycarbonyloxy)ethyl 2-ethoxy-1-[[2′-(1 H-tetrazol-5-yl)biphenyl-4-yl]methyl]benzimidazole-7-carboxylate] | unstable by heat
CCOc1nc2cccc(C(=O)OC(C)OC(=O)OC3CCCCC3)c2n1Cc1ccc(-c2ccccc2-c2nnn[nH]2)cc1 (stereo not shown) [C-type crystal] | stable by heat

Assay: not given
Conditions: not given

melting point | SMILES
149 to 152 °C | CCNc1nc2cccc(C(=O)OC(C)OC(=O)OC3CCCCC3)c2n1Cc1ccc(-c2ccccc2-c2nnn[nH]2)cc1 (stereo not shown) [Working Example 63, 1-(Cyclohexyloxycarbonyloxy)ethyl 2-ethylamino-1-[[2′-(1 H-tetrazol-5-yl)biphenyl-4-yl]methyl]benzimidazole-7-carboxylate]
122 to 125 °C (dec.) | CCOc1nc2cccc(C(=O)OCc3oc(=O)oc3C)c2n1Cc1ccc(-c2ccccc2-c2nnn[nH]2)cc1 [Working Example 49, (5-Methyl-2-oxo-1,3-dioxolen-4-yl)methyl 2-ethoxy-1-[[2′-(1 H-tetrazol-5-yl)biphenyl-4-yl]methyl]benzimidazole-7-carboxylate]
136 to 138 °C | CCOc1nc2cccc(C(=O)OCOC(=O)C3CCCC3)c2n1Cc1ccc(-c2ccccc2-c2nnn[nH]2)cc1 [Working Example 61, Cyclopentylcarbonyloxymethyl 2-ethoxy-1-[[2′-(1 H-tetrazol-5-yl)biphenyl-4-yl]methyl]benzimidazole-7-carboxylate]
146 to 147 °C | CCOc1nc2cccc(C(=O)OCOC(=O)/C=C/c3ccccc3)c2n1Cc1ccc(-c2ccccc2-c2nnn[nH]2)cc1 [Working Example 60, (E)-cinnamoyloxymethyl 2-ethoxy-1-[[2′-(1 H-tetrazol-5-yl)biphenyl-4-yl]methyl]benzimidazole-7-carboxylate]
74 to 76 °C | CCOc1nc2cccc(C(=O)OC(C)OC(=O)OC(C)C)c2n1Cc1ccc(-c2ccccc2)c(-c2nnn[nH]2)c1 (stereo not shown) [Working Example 56, 1-(Isopropoxycarbonyloxy)ethyl 2-ethoxy-1-[[2-(1 H-tetrazol-5-yl)biphenyl-4-yl]methyl]benzimidazole-7-carboxylate]
145 to 150 °C (dec.) | CCOc1nc2cccc(C(=O)OCOC(=O)CC)c2n1Cc1ccc(-c2ccccc2-c2nnn[nH]2)cc1 [Working Example 51, Propionyloxymethyl 2-ethoxy-1-[[2′-(1 H-tetrazol-5-yl)-biphenyl-4-yl]methyl]benzimidazole-7-carboxylate]
143 to 145 °C | CCOc1nc2cccc(C(=O)OCOC(=O)C(C)C)c2n1Cc1ccc(-c2ccccc2-c2nnn[nH]2)cc1 [Working Example 53, Isobutyryloxymethyl 2-ethoxy-1-[[2′-(1 H-tetrazol-5-yl)biphenyl-4-yl]methyl]benzimidazole-7-carboxylate]
85 to 87 °C | CCOC(=O)OC(C)OC(=O)c1cccc2nc(OCC)n(Cc3ccc(-c4ccccc4-c4nnn[nH]4)cc3)c12 (stereo not shown) [Working Example 54, 1-(Ethoxycarbonyloxy)ethyl 2-ethoxy-1-[[2′-(1 H-tetrazol-5-yl)-biphenyl-4-yl]methyl]benzimidazole-7-carboxylate]
130 to 135 °C | CCNc1nc2cccc(C(=O)OCOC(=O)C(C)(C)C)c2n1Cc1ccc(-c2ccccc2-c2nnn[nH]2)cc1 [Working Example 62, Pivaloyloxymethyl 2-ethylamino-1-[[2′-(1 H-tetrazol-5-yl)biphenyl-4-yl]methyl]benzimidazole-7-carboxylate]

SMILES | melting point
CCOc1nc2cccc(C(=O)OC(C)OC(C)=O)c2n1Cc1ccc(-c2ccccc2-c2nnn[nH]2)cc1 (stereo not shown) [Working Example 55, 1-Acetoxyethyl 2-ethoxy-1-[[2′-(1 H-tetrazol-5-yl)biphenyl-4-yl]methyl]benzimidazole-7-carboxylate] | 105 to 107 °C
CCOc1nc2cccc(C(=O)OCOC(C)=O)c2n1Cc1ccc(-c2ccccc2-c2nnn[nH]2)cc1 [Working Example 50, Acetoxymethyl 2-ethoxy-1-[[2′-(1 H-tetrazol-5-yl)biphenyl-4-yl]methyl]benzimidazole-7-carboxylate] | 152 to 154 °C (dec.)
